Laboratory results from US20230233687A1, “HYALURONIC ACID-BASED FORMULATIONS FOR TREATMENT AND PREVENTION OF OCULAR HYPERTENSION AND GLAUCOMA” (I.COM MEDICAL GMBH, priority 2020, published 2023).

How the values were obtained:
[1] = Pre-test: latanoprost dissolved in the HA vehicle (HPLC); format: physicochemical; conditions: vehicle 0.15% w/v hylan A in phosphate buffered saline pH 7.4, 25 or 50 μg/ml added, stirred 18 hours at 40° C.
Experimental: Sterile bulk solution for the production of COMFORT SHIELD® MDS eye drops (i.com medical GmbH, Munich, Germany) was used as vehicle for the preparation of prototype latanoprost bulk solution (PLBS). The vehicle contained 0.15% w/v hylan A (HA with 2.9 m^3/kg intrinsic viscosity) dissolved in phosphate buffered saline solution (8.035 g/l NaCl; 1.2 mmol/l Na2HPO4/NaH2PO4; pH 7.4). Latanoprost was obtained from Yonsung Fine Chemicals Co. Ltd., Gyeonggi-do, Republic of Korea. PLBS was prepared by medi-pharm Laboratorium GmbH, Falkensee, Germany by dissolving 20±1 μg/ml latanoprost in the vehicle.
In a pre-test 25 μg/ml and 50 μg/ml latanoprost were added to the vehicle and the solution stirred for 18 hours at 40° C. The latanoprost content was determined by HPLC using a Hypersil B D S C18 […], 150.0×4.0 mm column (VDS optilab) and a UV detector (200 nm).

[2] = PubChem CID 5311221; cited from earlier work

Q: Which “latanoprost dissolved in the vehicle” value [1] does the source give for `CC(C)OC(=O)CCC/C=C\C[C@@H]1[C@@H](CC[C@@H](O)CCc2ccccc2)[C@H](O)C[C@@H]1O` [latanoprost] here?
A: Its value is 20.8 µg/mL.

Q: And the “solubility of latanoprost in water” value [2]?
A: The value was 12.9 µg/mL.
